What all share (format): in vivo
The test system of assay [1] is cotton melon aphid (Aphis gossypii (Glover)). The assay is described as follows: Test E: control of cotton melon aphid on okra plant, contact and/or systemic. The conditions noted are these: 144 h. The method, then:
(§1) Test Compounds were formulated using a solution containing 10% acetone, 90% water and 300 ppm Activator 90® non-ionic surfactant (Loveland Products, Loveland, Colo., USA). The formulated Compounds were applied in 1 mL of liquid through an atomizer nozzle positioned 1.27 cm (0.5 inches) above the top of each test unit. Test Compounds were sprayed at the rates indicated, and each test was replicated three times.
For evaluating control of cotton melon aphid (Aphis gossypii (Glover)) through contact and/or systemic means, the test unit consisted of a small open container with a 5-day-old okra plant inside. This was pre-infested with 30-40 insects on a piece of leaf according to the cut-leaf method, and the soil of the test unit was covered with a layer of sand.
Test Compounds were formulated and sprayed at 250, 50 and 10 ppm. After spraying, the test units were maintained in a growth chamber for 6 days at 19° C. and 70% relative humidity. Each test unit was then visually assessed for insect mortality.

The test system of assay [2] is potato leafhopper (Empoasca fabae (Harris)). The assay can be described thus: Test C: control of potato leafhopper on Soleil bean plant, contact and/or systemic. The conditions noted are these: 144 h. The method, then: as §1
For evaluating control of potato leafhopper (Empoasca fabae (Harris)) through contact and/or systemic means, the test unit consisted of a small open container with a 5-6-day-old Soleil bean plant (primary leaves emerged) inside. White sand was added to the top of the soil, and one of the primary leaves was excised prior to application of the test Compound.
Test Compounds were formulated and sprayed at 250, 50 and 10 ppm. After spraying of the formulated test Compound, the test units were allowed to dry for 1 hour before they were post-infested with 5 potato leafhoppers (18-to-21-day-old adults). A black, screened cap was placed on the top of the test unit, and the test units were held for 6 days in a growth chamber at 20° C. and 70% relative humidity. Each test unit was then visually assessed for insect mortality.

Assay [3] relates to beet army worm [Spodoptera exigua (Hübner)]. The assay is described as follows: Test H: control of beet armyworm on treated soybean leaf pieces. The note with it: 96 h. The method, then:
(§2) For evaluating control of beet army worm [Spodoptera exigua (Hübner)], corn earworm [Helicoverpa zea (Boddie)], and cabbage looper [Trichoplusia ni (Hübner)], the test unit consisted of 4-inch diameter pots with 3-4 week old soybean (for S. exigua) or cotton (for H. zea and T. ni) plants inside. Plants were treated with test Compound sprayed to runoff using a hand-held spray nozzle. Test Compounds were formulated and sprayed at 5 rates. Treated plants dried for 1 hour. Leaves of treated plants were cut into pieces (approximately 4×3 cm), and pieces were placed in cells of plastic trays that each contained agar to maintain humidity. Each cell was infested with a single second-instar larva which represented a separate replicate. Each rate was represented by 16-24 larvae. Cells were sealed with lids. Trays were held for 4 days in a growth chamber with a 16:8-hour (Light:Dark) cycle at 25° C. and 70% relative humidity.
(§3) Treatments were evaluated by counting the number of live and dead larvae and by visually estimating the percentage of feeding on plant material using a 0-10 rating scale, corresponding to 10% increases from 0-100% feeding.

Assay [4] has as its system corn earworm [Helicoverpa zea (Boddie)]. The assay is described as follows: Test H: control of corn earworm on treated cotton leaf pieces. The conditions noted are these: 96 h. The method, then: as §2, §3
Assay [5] deals with green peach aphid (Myzus persicae (Sulzer)). The assay can be described thus: Test D: control of green peach aphid on radish plant, contact and/or systemic. The conditions noted are these: 144 h. The method, then: as §1
For evaluating control of green peach aphid (Myzus persicae (Sulzer)) through contact and/or systemic means, the test unit consisted of a small open container with a 12-15-day-old radish plant inside. This was pre-infested by placing on a leaf of the test plant 30-40 aphids on a piece of leaf excised from a culture plant (cut-leaf method). The aphids moved onto the test plant as the leaf piece desiccated. After pre-infestation, the soil of the test unit was covered with a layer of sand.
Test Compounds were formulated and sprayed at 250 and 50 ppm. After spraying of the formulated test Compound, each test unit was allowed to dry for 1 hour and then a black, screened cap was placed on top. The test units were held for 6 days in a growth chamber at 19-21° C. and 50-70% relative humidity. Each test unit was then visually assessed for insect mortality.

The test system of assay [6] is Western Flower Thrips (Frankliniella occidentalis (Pergande)). The assay can be described thus: Test G: control of Western Flower Thrips on Soleil bean plant, contact and/or systemic. The conditions noted are these: sprayed at 10 ppm; 6 days. The method, then:
as §1
For evaluating control of the Western Flower Thrips (Frankliniella occidentalis (Pergande)) through contact and/or systemic means, the test unit consisted of a small open container with a 5-7-day-old Soleil bean plant inside.
Test Compounds were formulated and sprayed at 250, 50, 10 and 2 ppm. After spraying, the test units were allowed to dry for 1 hour, and then ˜60 thrips (adults and nymphs) were added to each unit. A black, screened cap was placed on top, and the test units were held for 6 days at 25° C. and 45-55% relative humidity. Each test unit was then visually assessed for plant damage and insect mortality.

The subject of assay [7] is cabbage looper [Trichoplusia ni (Hübner)]. The assay is described as follows: Test H: control of cabbage looper on treated cotton leaf pieces. The note with it: 96 h. The method, then: as §2, §3

Some results are limits rather than exact numbers.

With `O=C(NC1C[S+]([O-])C1)c1ccc(C2=NOC(c3cc(Cl)c(F)c(Cl)c3)(C(F)(F)F)C2)c2ccoc12` (single isomer, unassigned) [Compound 57, 4-(5-(3,5-dichloro-4-fluorophenyl)-5-(trifluoromethyl)-4,5-dihydroisoxazol-3-yl)-N-(1-oxidothietan-3-yl)benzofuran-7-carboxamide], the mortality at 10 ppm in assay [1], in assay [2], in assay [3], in assay [4] and in assay [5] was not below 80% throughout. For the same molecule, the mortality at 1 ppm in assay [3] and in assay [4] was not below 80% each time.
Turning to `CSCCNC(=O)c1ccc(C2=NOC(c3cc(Cl)c(F)c(Cl)c3)(C(F)(F)F)C2)c2ccoc12` (centres unmarked) [Compound 1], the “control efficacy: plant damage (30% or less plant damage and/or 100% mortality)” value in assay [6] was not above 30%.
Turning to `O=C(NCc1ncccn1)c1ccc(C2=NOC(c3cc(Cl)c(F)c(Cl)c3)(C(F)(F)F)C2)c2ccsc12` (centres unmarked) [Compound 20, 4-[5-(3,5-dichloro-4-fluorophenyl)-4,5-dihydro-5-(trifluoromethyl)-3-isoxazolyl]-N-(2-pyrimidinylmethyl)benzo[b]thiophene-7-carboxamide], the mortality at 50 ppm in assay [1], in assay [2] and in assay [5] was not below 80% throughout. Further, in assay [2], the mortality (commonly the percentage killed) at 10 ppm is not below 80%.
In the case of `O=C(NC1CSC1)c1ccc(C2=NOC(c3cc(Cl)c(F)c(Cl)c3)(C(F)(F)F)C2)c2ccoc12` (centres unmarked) [Compound 55, 4-(5-(3,5-dichloro-4-fluorophenyl)-5-(trifluoromethyl)-4,5-dihydroisoxazol-3-yl)-N-(thietan-3-yl)benzofuran-7-carboxamide], the mortality at 10 ppm in assay [1], in assay [2] and in assay [5] was not below 80% in each case.
Consider `O=C(NC1CS(=O)(=O)C1)c1ccc(C2=NOC(c3cc(Cl)c(F)c(Cl)c3)(C(F)(F)F)C2)c2ccoc12` (centres unmarked) [Compound 56, 4-[5-(3,5-dichloro-4-fluorophenyl)-4,5-dihydro-5-(trifluoromethyl)-3-isoxazolyl]-N-(1,1-dioxido-3-thietanyl)-7-benzofurancarboxamide], for which the mortality at 10 ppm in assay [2], in assay [3] and in assay [4] was not below 80% each time. The mortality at 1 ppm in assay [3] and in assay [4] was not below 80% throughout.
As to `CC(=O)NCc1ccc(C2=NOC(c3cc(Cl)cc(Cl)c3)(C(F)(F)F)C2)c2ccoc12` (centres unmarked) [Compound 79, N-[[4-[5-(3,5-dichlorophenyl)-5-(trifluoromethyl)-4H-1,2-oxazol-3-yl]-1-benzofuran-7-yl]methyl]acetamide], the mortality at 10 ppm in assay [1] and in assay [2] was not below 80% in each case. Also, in assay [4], the mortality at 1 ppm was not below 80%.
Regarding `CC(=O)NCc1ccc(C2=NOC(c3cc(Cl)c(F)c(Cl)c3)(C(F)(F)F)C2)c2ccoc12` (centres unmarked) [Compound 83, N-[[4-[5-(3,5-dichloro-4-fluorophenyl)-4,5-dihydro-5-(trifluoromethyl)-3-isoxazolyl]-7-benzofuranyl]methyl]acetamide], the mortality at 10 ppm in assay [1], in assay [2] and in assay [5] was not below 80% in each case. The mortality at 1 ppm in assay [3] and in assay [4] was not below 80% in each case.
As to `C[C@H](NC(=O)c1ccc(C2=NOC(c3cc(Cl)cc(Cl)c3)(C(F)(F)F)C2)c2sccc12)C(N)=O` (stereo partly drawn) [Compound 101, N-[(1S)-2-amino-1-methyl-2-oxo-ethyl]-7-[5-(3,5-dichlorophenyl)-5-(trifluoromethyl)-4H-isoxazol-3-yl]benzothiophene-4-carboxamide], the mortality at 10 ppm in assay [2], in assay [3], in assay [4] and in assay [7] was not below 80% throughout. For the same molecule, the mortality at 1 ppm in assay [3], in assay [4] and in assay [7] was not below 80% each time.

These data come from patent publication US20210309652A1, “ISOXAZOLINE COMPOUNDS FOR CONTROLLING INVERTEBRATE PESTS” (priority 2018, published 2021).
